Data reported in publication PMC11845477, “Exploring the principles behind antibiotics with limited resistance” (Nature Communications, 2025).
Where a SMILES comes first, the peptide text is derived from it. Bridges are numbered along the chain shown (N, C = ends). [ ]: non-standard residue; d: D form. The star is where a group is joined. X2 = CC[C@H](C)CCCCC(=O)*; Dab = NCC[C@H](N)C(=O)O

What was measured:
[1] = test system: E. coli ATCC 25922 (SEN) and E. coli NCTC13846 (MDR); assay: Adaptive laboratory evolution (ALE), relative MIC of evolved lines; type: cell-based, Escherichia coli
Summary of the method: (§1)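 Ten parallel populations per antibiotic–ancestor pair were evolved in MHB at 37 °C, starting near 50% growth-inhibiting drug. Every 72 h they were passaged into 0.5–2.5× increasing concentrations, keeping the highest-drug well with OD600 > 0.2.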

[2] = test system: A. baumannii ATCC 17978 (SEN) and A. baumannii ATCC BAA-1605 (MDR); assay: as above; type: cell-based, Acinetobacter baumannii
Summary of the method: as §1

[3] = EC-SEN (Escherichia coli ATCC 25922), evolved line 4
[4] = EC-SEN (Escherichia coli ATCC 25922), evolved line 6
[5] = EC-SEN (Escherichia coli ATCC 25922), evolved line 8
[6] = EC-SEN (Escherichia coli ATCC 25922), evolved line 10
[7] = EC-SEN, Escherichia coli ATCC 25922, evolved line 2
[8] = AB-SEN (Acinetobacter baumannii ATCC 17978), evolved line 1
[9] = AB-SEN (Acinetobacter baumannii ATCC 17978), evolved line 2
[10] = AB-SEN (Acinetobacter baumannii ATCC 17978), evolved line 4
[11] = AB-SEN (Acinetobacter baumannii ATCC 17978), evolved line 6
[12] = AB-SEN (Acinetobacter baumannii ATCC 17978), evolved line 9

For `CN(C)c1cc(CNCC(C)(C)C)c(O)c2c1C[C@H]1C[C@H]3[C@H](N(C)C)C(O)=C(C(N)=O)C(=O)[C@@]3(O)C(O)=C1C2=O` [Omadacycline], which “Relative MIC (log10)” value ([1]; EC-SEN (Escherichia coli ATCC 25922), evolved line 1 adapted to the named antibiotic) is on record?
Its value is 0.9031.

And the “Relative MIC (log10)” value ([1]; EC-SEN (Escherichia coli ATCC 25922), evolved line 2 adapted to the named antibiotic)?
Its value is 0.9031.

And the “Relative MIC” value ([1]; EC-SEN (Escherichia coli ATCC 25922), evolved line 3)?
Its value is 4.

What about the “Relative MIC” value [1, 3] of the same molecule?
The value was 8.

What about the “Relative MIC” value ([1]; EC-SEN (Escherichia coli ATCC 25922), evolved line 5) of the same molecule?
Its value is 8.

And the “Relative MIC (log10)” value ([1]; EC-SEN (Escherichia coli ATCC 25922), evolved line 5 adapted to the named antibiotic)?
Its value is 0.9031.

And the “Relative MIC” value [1, 4]?
The value was 4.

What about the “Relative MIC (log10)” value ([1]; EC-SEN (Escherichia coli ATCC 25922), evolved line 6 adapted to the named antibiotic) of the same molecule?
The value was 0.6021.

What about the “Relative MIC” value ([1]; EC-SEN (Escherichia coli ATCC 25922), evolved line 7) of the same molecule?
Its value is 2.

And the “Relative MIC” value [1, 5]?
Its value is 8.

What about the “Relative MIC” value ([1]; EC-SEN (Escherichia coli ATCC 25922), evolved line 9) of the same molecule?
Its value is 8.

What about the “Relative MIC (log10)” value ([1]; EC-SEN (Escherichia coli ATCC 25922), evolved line 9 adapted to the named antibiotic) of the same molecule?
The value was 0.9031.

What about the “Relative MIC” value [1, 6] of the same molecule?
The value was 4.

What about the “Relative MIC” value ([1]; EC-SEN ATCC 25922, evolved line 1, evolved line vs ancestor) of the same molecule?
The value was 8.

And the “Relative MIC” value ([1]; EC-SEN ATCC 25922, evolved line 2, evolved line vs ancestor)?
Its value is 8.

What about the “Relative MIC” value ([1]; EC-SEN ATCC 25922, evolved line 3, evolved line vs ancestor) of the same molecule?
The value was 4.

And the “Relative MIC” value ([1]; EC-SEN ATCC 25922, evolved line 4, evolved line vs ancestor)?
The value was 8.

What about the “Relative MIC” value ([1]; EC-SEN ATCC 25922, evolved line 5, evolved line vs ancestor) of the same molecule?
The value was 8.

What about the “Relative MIC” value ([1]; EC-SEN ATCC 25922, evolved line 6, evolved line vs ancestor) of the same molecule?
The value was 4.

What about the “Relative MIC” value ([1]; EC-SEN ATCC 25922, evolved line 7, evolved line vs ancestor) of the same molecule?
The value was 2.

And the “Relative MIC” value ([1]; EC-SEN ATCC 25922, evolved line 8, evolved line vs ancestor)?
The value was 8.

And the “Relative MIC” value ([1]; EC-SEN ATCC 25922, evolved line 9, evolved line vs ancestor)?
Its value is 8.

And the “Relative MIC” value ([1]; EC-SEN ATCC 25922, evolved line 10, evolved line vs ancestor)?
The value was 4.

What about the “Relative MIC” value ([1]; EC-SEN, Escherichia coli ATCC 25922, evolved line 1) of the same molecule?
Its value is 8.

What about the “Relative MIC” value [1, 7] of the same molecule?
The value was 8.

And the “Relative MIC” value [2, 8]?
The value was 32.

What about the “Relative MIC (log10)” value ([2]; AB-SEN (Acinetobacter baumannii ATCC 17978), evolved line 1 adapted to the named antibiotic) of the same molecule?
Its value is 1.505.

What about the “Relative MIC” value [2, 9] of the same molecule?
Its value is 64.

And the “Relative MIC” value ([2]; AB-SEN (Acinetobacter baumannii ATCC 17978), evolved line 3)?
Its value is 64.

What about the “Relative MIC (log10)” value ([2]; AB-SEN (Acinetobacter baumannii ATCC 17978), evolved line 3 adapted to the named antibiotic) of the same molecule?
The value was 1.806.

What about the “Relative MIC” value [2, 10] of the same molecule?
The value was 32.

And the “Relative MIC” value ([2]; AB-SEN (Acinetobacter baumannii ATCC 17978), evolved line 5)?
The value was 128.

What about the “Relative MIC” value [2, 11] of the same molecule?
Its value is 128.

What about the “Relative MIC (log10)” value ([2]; AB-SEN (Acinetobacter baumannii ATCC 17978), evolved line 6 adapted to the named antibiotic) of the same molecule?
Its value is 2.107.

And the “Relative MIC (log10)” value ([2]; AB-SEN (Acinetobacter baumannii ATCC 17978), evolved line 7 adapted to the named antibiotic)?
The value was 1.806.

What about the “Relative MIC” value ([2]; AB-SEN (Acinetobacter baumannii ATCC 17978), evolved line 8) of the same molecule?
The value was 64.

What about the “Relative MIC (log10)” value ([2]; AB-SEN (Acinetobacter baumannii ATCC 17978), evolved line 8 adapted to the named antibiotic) of the same molecule?
Its value is 1.806.

And the “Relative MIC” value [2, 12]?
The value was 32.

What about the “Relative MIC” value ([2]; AB-SEN (Acinetobacter baumannii ATCC 17978), evolved line 10) of the same molecule?
The value was 32.

What about the “Relative MIC” value ([2]; AB-SEN ATCC 17978, evolved line 1, evolved line vs ancestor) of the same molecule?
Its value is 32.

And the “Relative MIC” value ([2]; AB-SEN ATCC 17978, evolved line 2, evolved line vs ancestor)?
The value was 64.

And the “Relative MIC” value ([2]; AB-SEN ATCC 17978, evolved line 3, evolved line vs ancestor)?
The value was 64.

And the “Relative MIC” value ([2]; AB-SEN ATCC 17978, evolved line 4, evolved line vs ancestor)?
Its value is 32.

And the “Relative MIC” value ([2]; AB-SEN ATCC 17978, evolved line 5, evolved line vs ancestor)?
The value was 128.

And the “Relative MIC” value ([2]; AB-SEN ATCC 17978, evolved line 6, evolved line vs ancestor)?
The value was 128.

What about the “Relative MIC” value ([2]; AB-SEN ATCC 17978, evolved line 7, evolved line vs ancestor) of the same molecule?
The value was 64.

What about the “Relative MIC” value ([2]; AB-SEN ATCC 17978, evolved line 8, evolved line vs ancestor) of the same molecule?
Its value is 64.

And the “Relative MIC” value ([2]; AB-SEN ATCC 17978, evolved line 9, evolved line vs ancestor)?
Its value is 32.

What about the “Relative MIC” value ([2]; AB-SEN ATCC 17978, evolved line 10, evolved line vs ancestor) of the same molecule?
Its value is 32.

And the “Relative MIC” value ([2]; AB-SEN, Acinetobacter baumannii ATCC 17978, evolved line 7)?
Its value is 64.

For `CC[C@H](C)CCCCC(=O)N[C@@H](CCN)C(=O)N[C@H](C(=O)N[C@@H](CCN)C(=O)N[C@H]1CCNC(=O)[C@H]([C@@H](C)O)NC(=O)[C@H](CCN)NC(=O)[C@H](CCN)NC(=O)[C@H](CC(C)C)NC(=O)[C@@H](Cc2ccccc2)NC(=O)[C@H](CCN)NC1=O)[C@@H](C)O` [Polymyxin B] (X2-[Dab]T[Dab][Dab][Dab][dF]L[Dab][Dab]T; lactam 4-C (inferred); N-terminus assumed), which “Relative MIC (log10)” value ([1]; EC-MDR (Escherichia coli NCTC 13846), evolved line 2) is on record?
The value was 1.505 log10.

And the “Relative MIC (log10)” value ([1]; EC-MDR (Escherichia coli NCTC 13846), evolved line 5)?
Its value is 1.204 log10.

What about the “Relative MIC (log10)” value ([1]; EC-MDR (Escherichia coli NCTC 13846), evolved line 10) of the same molecule?
Its value is 1.204 log10.

What about the “Relative MIC (log10)” value ([1]; EC-MDR, Escherichia coli NCTC 13846, evolved line 1) of the same molecule?
Its value is 1.505 log10.

What about the “Relative MIC (log10)” value ([1]; EC-MDR, Escherichia coli NCTC 13846, evolved line 6) of the same molecule?
Its value is 1.204 log10.

What about the “Relative MIC (log10)” value [1, 3] of the same molecule?
The value was 2.107 log10.

And the “Relative MIC (log10)” value [1, 4]?
Its value is 2.107 log10.

What about the “Relative MIC (log10)” value [1, 5] of the same molecule?
Its value is 2.107 log10.

And the “Relative MIC (log10)” value [1, 6]?
Its value is 2.107 log10.

And the “Relative MIC (log10)” value [1, 7]?
The value was 2.107 log10.

What about the “Relative MIC (log10)” value ([2]; AB-MDR (Acinetobacter baumannii ATCC BAA 1605), evolved line 4) of the same molecule?
Its value is 3.0103 log10.

And the “Relative MIC (log10)” value ([2]; AB-MDR (Acinetobacter baumannii ATCC BAA 1605), evolved line 5)?
The value was 3.0103 log10.

What about the “Relative MIC (log10)” value ([2]; AB-MDR (Acinetobacter baumannii ATCC BAA 1605), evolved line 6) of the same molecule?
Its value is 3.0103 log10.

And the “Relative MIC (log10)” value ([2]; AB-MDR (Acinetobacter baumannii ATCC BAA 1605), evolved line 7)?
The value was 3.0103 log10.

And the “Relative MIC (log10)” value ([2]; AB-MDR (Acinetobacter baumannii ATCC BAA 1605), evolved line 9)?
The value was 3.0103 log10.

And the “Relative MIC (log10)” value [2, 8]?
Its value is 2.709 log10.

And the “Relative MIC (log10)” value [2, 9]?
Its value is 2.709 log10.

What about the “Relative MIC (log10)” value [2, 10] of the same molecule?
Its value is 2.709 log10.

And the “Relative MIC (log10)” value [2, 11]?
Its value is 2.709 log10.

And the “Relative MIC (log10)” value [2, 12]?
Its value is 2.408 log10.
